According to PubChem BioAssay AID1259407 (Chemical Carcinogenesis Research Information System (CCRIS), 2018):
The source made the active and inactive calls. The rule behind the calls is not given here.

Tested on: CCRIS mutagenicity, Ames/micronucleus/aberration tests
Assay: CCRIS mutagenicity studies
Conditions: Test System: AMES SALMONELLA TYPHIMURIUM
[1] = Strain/Indicator: TA97, Metabolic Activation: NONE, Method: PREINCUBATION
[2] = Strain/Indicator: TA102, Metabolic Activation: NONE, Method: PREINCUBATION
[3] = Strain/Indicator: TA98, Metabolic Activation: NONE, Method: STANDARD PLATE
[4] = Strain/Indicator: TA98, Metabolic Activation: RAT LIVER S-9, AROCLOR 1254, Method: STANDARD PLATE
[5] = Strain/Indicator: TA100, Metabolic Activation: NONE, Method: STANDARD PLATE
[6] = Strain/Indicator: TA100, Metabolic Activation: RAT LIVER S-9, AROCLOR 1254, Method: STANDARD PLATE

[Ga]#[As]
mutagenic call (Strain/Indicator: TA97, Metabolic Activation: HAMSTER, LIVER, S-9, AROCLOR 1254 (10 OR 30%), Method: PREINCUBATION): inactive; negative | mutagenic call [1]: inactive; negative | mutagenic call (Strain/Indicator: TA97, Metabolic Activation: RAT, LIVER, S-9, AROCLOR 1254 (10 OR 30%), Method: PREINCUBATION): inactive; negative | mutagenic call (Strain/Indicator: TA98, Metabolic Activation: HAMSTER, LIVER, S-9, AROCLOR 1254 (10%), Method: PREINCUBATION): inactive; negative | mutagenic call (Strain/Indicator: TA98, Metabolic Activation: HAMSTER, LIVER, S-9, AROCLOR 1254 (30%), Method: PREINCUBATION): inactive; negative | mutagenic call (Strain/Indicator: TA98, Metabolic Activation: NONE, Method: PREINCUBATION): inactive; negative | mutagenic call (Strain/Indicator: TA98, Metabolic Activation: RAT, LIVER, S-9, AROCLOR 1254 (10%), Method: PREINCUBATION): inactive; negative | mutagenic call (Strain/Indicator: TA98, Metabolic Activation: RAT, LIVER, S-9, AROCLOR 1254 (30%), Method: PREINCUBATION): inactive; negative | mutagenic call (Strain/Indicator: TA100, Metabolic Activation: HAMSTER, LIVER, S-9, AROCLOR 1254 (10%), Method: PREINCUBATION): inactive; negative | mutagenic call (Strain/Indicator: TA100, Metabolic Activation: HAMSTER, LIVER, S-9, AROCLOR 1254 (30%), Method: PREINCUBATION): inactive; negative | mutagenic call (Strain/Indicator: TA100, Metabolic Activation: NONE, Method: PREINCUBATION): inactive; negative | mutagenic call (Strain/Indicator: TA100, Metabolic Activation: RAT, LIVER, S-9, AROCLOR 1254 (10%), Method: PREINCUBATION): inactive; negative | mutagenic call (Strain/Indicator: TA100, Metabolic Activation: RAT, LIVER, S-9, AROCLOR 1254 (30%), Method: PREINCUBATION): inactive; negative | mutagenic call (Strain/Indicator: TA102, Metabolic Activation: HAMSTER, LIVER, S-9, AROCLOR 1254 (5 OR 10%), Method: PREINCUBATION): inactive; negative | mutagenic call (Strain/Indicator: TA102, Metabolic Activation: HAMSTER, LIVER, S-9, AROCLOR 1254 (30%), Method: PREINCUBATION): inactive; negative | mutagenic call [2]: inactive; negative | mutagenic call (Strain/Indicator: TA102, Metabolic Activation: RAT, LIVER, S-9, AROCLOR 1254 (10%), Method: PREINCUBATION): inactive; negative | mutagenic call (Strain/Indicator: TA102, Metabolic Activation: RAT, LIVER, S-9, AROCLOR 1254 (30%), Method: PREINCUBATION): inactive; negative | mutagenic call (Strain/Indicator: TA1535, Metabolic Activation: HAMSTER, LIVER, S-9, AROCLOR 1254 (10%), Method: PREINCUBATION): inactive; negative | mutagenic call (Strain/Indicator: TA1535, Metabolic Activation: HAMSTER, LIVER, S-9, AROCLOR 1254 (30%), Method: PREINCUBATION): inactive; negative | mutagenic call (Strain/Indicator: TA1535, Metabolic Activation: NONE, Method: PREINCUBATION): inactive; negative | mutagenic call (Strain/Indicator: TA1535, Metabolic Activation: RAT, LIVER, S-9, AROCLOR 1254 (10%), Method: PREINCUBATION): inactive; negative | mutagenic call (Strain/Indicator: TA1535, Metabolic Activation: RAT, LIVER, S-9, AROCLOR 1254 (30%), Method: PREINCUBATION): inactive; negative

Cc1cc([N+](=O)[O-])c(C)c2c1[nH]c1ccc(O)cc12
mutagenic call [3]: active; positive | mutagenic call [4]: inactive; negative | mutagenic call [5]: inactive; negative | mutagenic call [6]: inactive; negative | mutagenic call (Strain/Indicator: TA1537, Metabolic Activation: NONE, Method: STANDARD PLATE): active; positive | mutagenic call (Strain/Indicator: TA1537, Metabolic Activation: RAT LIVER S-9, AROCLOR 1254, Method: STANDARD PLATE): active; positive | mutagenic call (Strain/Indicator: TA1977, Metabolic Activation: NONE, Method: STANDARD PLATE): active; positive | mutagenic call (Strain/Indicator: TA1977, Metabolic Activation: RAT LIVER S-9, AROCLOR 1254, Method: STANDARD PLATE): active; positive

CC(C)CCOC(=O)CC(C)C
mutagenic call [1]: inactive; negative | mutagenic call (Strain/Indicator: TA97, Metabolic Activation: RAT, LIVER, S-9, AROCLOR 1254, Method: PREINCUBATION): inactive; negative | mutagenic call [2]: inactive; negative | mutagenic call (Strain/Indicator: TA102, Metabolic Activation: RAT, LIVER, S-9, AROCLOR 1254, Method: PREINCUBATION): inactive; negative

[Cu+2].[O-]c1cccc2cccnc12.[O-]c1cccc2cccnc12
mutagenic call [3]: inactive; negative | mutagenic call [4]: inactive; negative | mutagenic call [5]: inactive; negative | mutagenic call [6]: active; positive
